Measured values taken from paper PMC7985570 (Signal Transduction and Targeted Therapy, 2021).
Like-named read-outs stand apart in the source and are kept apart here.

Tests used:
VSV-G pseudovirus = test: microbe, parasite or virus in culture; type: cell-based; settings: read-out: VSV-G Pseudovirus EC50
[1] = system: SARS-CoV-2 S-G614 pseudovirus; settings: for EC50: read-out: S-G614 Pseudovirus EC50
[2] = system: SARS-CoV-2 S-G614 pseudovirus; test: organism not typed; settings: 293T/ACE2, read-out: S-G614 Pseudovirus EC50
in vitro = settings: human, 293T-ACE2 CC50
S-G614 pseudovirus [3] = test: microbe, parasite or virus in culture; type: cell-based, SARS-CoV-2; settings: for EC50: Pseudovirus, 293T/ACE2, read-out: 293T-ACE2 Cells EC50 BAPTA-AM (0μM)
S-G614 pseudovirus [4] = test: microbe, parasite or virus in culture; type: cell-based; settings: read-out: EC50 against S-G614 pseudovirus in all three cell lines
[5] = target: receptor-binding domain (RBD) in the S protein of SARS-CoV-2 (Severe acute respiratory syndrome coronavirus 2, UniProt P0DTC2)
native SARS-CoV-2 = type: cell-based
[6] = system: SARS-CoV-2 S-mediated membrane fusion of 293T-ACE2 cells; type: cell-based
SARS-CoV-2 = settings: cited from earlier work

With `COc1cc2c(cc1OC)[C@@H](Cc1ccc(O)c(Oc3cc4c(cc3OC)CCN(C)[C@@H]4Cc3ccc(O)cc3)c1)N(C)CC2` [SC186, Liensinine] the EC50 (VSV-G pseudovirus) was > 50 µM, the CC50 (293T-ACE2 cells) was > 50 µM and the “SI (cytotoxicity)” value [1] was “>49.80”. It also gave an EC50 [1] of 1 µM.

In the case of `O=C1Nc2ccc(Cl)cc2[C@@](C#CC2CC2)(C(F)(F)F)O1` [SC102, Efavirenz], the EC50 [2] is reported as 0.00038 µM, the CC50 (in vitro) is reported as > 50 µM and the EC50 (VSV-G pseudovirus; Pseudovirus) is reported as 0.000723 µM. For the same molecule, the “SI (cytotoxicity)” value ([1]; human) was “>130890”.

In the case of Aloperine [SC96], the EC50 (VSV-G pseudovirus) is reported as 10.8 µM, the CC50 (293T-ACE2 cells) is reported as > 50 µM and the “SI (cytotoxicity)” value [1] is reported as “>176.87”. The EC50 [1] was 0.28 µM.

With `Cl.N=c1ccn2c(n1)O[C@H]1[C@H](O)[C@@H](CO)O[C@H]12` [SC33, Ancitabine (hydrochloride)] the EC50 (VSV-G pseudovirus) was > 50 µM, the CC50 (293T-ACE2 cells) was > 50 µM and the “SI (cytotoxicity)” value [1] was “>4.94”. It also gave an EC50 [1] of 10.1 µM.

With `CC(=O)OCOC(=O)CN(CC(=O)OCOC(C)=O)c1ccccc1OCCOc1ccccc1N(CC(=O)OCOC(C)=O)CC(=O)OCOC(C)=O` [BAPTA-AM, reference compound] the “SARS-CoV-2 pseudovirus infection on intracellular Ca2+ chelation” value (S-G614 pseudovirus [3]) was “significantly diminished”.

For `COc1cc2c(cc1OC)[C@@H](Cc1ccc(Oc3cc(C[C@@H]4c5cc(OC)c(OC)cc5CCN4C)ccc3O)cc1)N(C)CC2` [SC184, Dauricine], the EC50 [2] was 1.43 µM, the CC50 (in vitro) was > 50 µM and the EC50 (VSV-G pseudovirus; Pseudovirus) was > 50 µM. For the same molecule, the “SI (cytotoxicity)” value ([1]; human) was “>34.99”.

In the case of `COc1ccc2cc1Oc1ccc(cc1)CC1c3cc(c(OC)cc3CCN1C)Oc1c(O)c(OC)cc3c1C(C2)N(C)CC3` (stereo not shown) [SC181, Isofangchinoline], the EC50 (VSV-G pseudovirus) is reported as 3.95 µM, the CC50 (293T-ACE2 cells) is reported as > 50 µM and the “SI (cytotoxicity)” value [1] is reported as “>45.00”. For the same molecule, the EC50 [1] was 1.11 µM.

For `COc1ccc2cc1Oc1ccc(cc1)C[C@H]1c3cc(c(OC)cc3CCN1C)Oc1c(OC)c(OC)c(OC)c3c1[C@H](C2)N(C)CC3` [SC161, Hernandezine], the EC50 (S-G614 pseudovirus [4]) was < 10 µM, the “interaction with RBD” value [5] was “negligible” and the EC50 (S-G614 pseudovirus [3]) was 0.111 µM. For the same molecule, the “Virus-induced cytopathogenic effect and viral RNA levels” value (native SARS-CoV-2) was “partially inhibited”, the “relative viral RNA levels” value (native SARS-CoV-2) was 70.27% and the “decrease of fusion rates” value [6] was “approximately 90%”.

In the case of `COc1ccc(C[C@@H]2c3cc(Oc4cc(C[C@@H]5c6cc(O)c(OC)cc6CCN5C)ccc4O)c(OC)cc3CCN2C)cc1` [SC188, Isoliensinine], the EC50 [2] is reported as 1.29 µM, the CC50 (in vitro) is reported as > 50 µM and the EC50 (VSV-G pseudovirus; Pseudovirus) is reported as 7.02 µM. The “SI (cytotoxicity)” value ([1]; human) was “>38.88”.

For `COc1cc2c(cc1O)[C@@H](Cc1ccc(O)c(Oc3ccc(C[C@@H]4c5cc(OC)c(OC)cc5CCN4C)cc3)c1)N(C)CC2` [SC187, Daurisoline], the EC50 (VSV-G pseudovirus) was > 50 µM, the CC50 (293T-ACE2 cells) was > 50 µM and the “SI (cytotoxicity)” value [1] was “>20.13”. The EC50 [1] was 2.48 µM.

In the case of `Cc1cccc2c3c(ccc12)C1=C(C(=O)C3=O)[C@@H](C)CO1` [SC24, Dihydrotanshinone I], the EC50 [2] is reported as 15.7 µM, the CC50 (in vitro) is reported as 33.5 µM and the “SI (cytotoxicity)” value ([1]; human) is reported as 0.90.

For `CCOC(=O)C1=C(COCCN)NC(C)=C(C(=O)OC)C1c1ccccc1Cl` (stereo not shown) [amlodipine], the viral infection (SARS-CoV-2) is listed as “reduced viral infection”.

In the case of `COc1ccc2cc1Oc1ccc(cc1)C[C@H]1c3cc(c(OC)cc3CCN1C)Oc1c(O)c(OC)cc3c1[C@H](C2)N(C)CC3` [SC180, Fangchinoline], the EC50 [2] is reported as 0.94 µM, the CC50 (in vitro) is reported as > 50 µM and the EC50 (VSV-G pseudovirus; Pseudovirus) is reported as 4.39 µM. The “SI (cytotoxicity)” value ([1]; human) was “>53.39”.

With `Cc1nnc(C(=O)NC(C)(C)c2nc(C(=O)NCc3ccc(F)cc3)c([O-])c(=O)n2C)o1.[K+]` [SC109, Raltegravir (potassium salt)] the EC50 (VSV-G pseudovirus) was 0.0359 µM, the CC50 (293T-ACE2 cells) was > 50 µM and the “SI (cytotoxicity)” value [1] was “>247647”. It also gave an EC50 [1] of 0.0002 µM.

With Berbamine hydrochloride [SC183] the EC50 (VSV-G pseudovirus) was > 50 µM, the CC50 (293T-ACE2 cells; human) was > 50 µM and the “SI (cytotoxicity)” value ([1]; human) was “>38.94”. For the same molecule, the EC50 [1] was 1.28 µM.

With `CC(N)C12CC3CC(CC(C3)C1)C2.Cl` (stereo not shown) [SC16, Rimantadine (hydrochloride)] the CC50 (293T-ACE2 cells) was > 50 µM, the “SI (cytotoxicity)” value [1] was “>1.45” and the EC50 [1] was 34.6 µM.

In the case of `CC1CCN(CC(O)COc2cccc(OCC(O)CN3CCC(C)CC3)c2)CC1` (stereo not shown) [SC171, 3,3'-(1,3-phenylenebis(oxy))bis(1-(4-methylpiperidin-1-yl)propan-2-ol)], the EC50 (S-G614 pseudovirus [4]) is reported as < 10 µM, the “interaction with RBD” value [5] is reported as “negligible” and the EC50 (S-G614 pseudovirus [3]) is reported as 3.83 µM. For the same molecule, the “Virus-induced cytopathogenic effect and viral RNA levels” value (native SARS-CoV-2) was “partially inhibited” and the “relative viral RNA levels” value (native SARS-CoV-2) was 43.55%.

For `COc1c2c(cc3c1-c1c(cc4c(c1OC)OCO4)C[C@H](C)[C@H](C)C3)OCO2` [SC8, Schisandrin C], the EC50 [2] was 14.6 µM, the CC50 (in vitro) was > 50 µM and the “SI (cytotoxicity)” value ([1]; human) was “>3.43”.

With `COc1ccc(C[C@@H]2c3cc(Oc4cc(C[C@@H]5c6cc(OC)c(OC)cc6CCN5C)ccc4O)c(OC)cc3CCN2C)cc1` [SC185, Neferine] the EC50 [2] was 0.95 µM, the CC50 (in vitro) was > 50 µM and the EC50 (VSV-G pseudovirus; Pseudovirus) was > 50 µM. The EC50 (S-G614 pseudovirus [4]) was < 10 µM, the “interaction with RBD” value [5] was “negligible” and the EC50 (S-G614 pseudovirus [3]) was 0.946 µM. For the same molecule, the “Virus-induced cytopathogenic effect and viral RNA levels” value (native SARS-CoV-2) was “partially inhibited”, the “relative viral RNA levels” value (native SARS-CoV-2) was 76.98% and the “decrease of fusion rates” value [6] was “approximately 90%”.

For `COc1ccc2cc1Oc1ccc(cc1)C[C@H]1c3c(cc4c(c3Oc3cc5c(cc3OC)CCN(C)[C@@H]5C2)OCO4)CCN1C` [SC9, Cepharanthine], the EC50 (S-G614 pseudovirus [4]) was < 10 µM, the “interaction with RBD” value [5] was “negligible” and the EC50 (S-G614 pseudovirus [3]) was 0.315 µM. For the same molecule, the “Virus-induced cytopathogenic effect and viral RNA levels” value (native SARS-CoV-2) was “partially inhibited”, the “relative viral RNA levels” value (native SARS-CoV-2) was 0.08% and the “decrease of fusion rates” value [6] was “approximately 90%”.

With `COc1ccc2cc1Oc1ccc(cc1)C[C@H]1c3cc(c(OC)cc3CCN1C)Oc1c(OC)c(OC)cc3c1[C@H](C2)N(C)CC3` [SC182, Tetrandrine] the EC50 [2] was 0.9 µM, the CC50 (in vitro) was > 50 µM and the EC50 (VSV-G pseudovirus; Pseudovirus) was 27.9 µM. For the same molecule, the EC50 (S-G614 pseudovirus [4]) was < 10 µM, the “SI (cytotoxicity)” value ([1]; human) was “>55.80” and the “decrease of fusion rates” value [6] was “approximately 90%”.

With `CCOC(=O)[C@H]1O[C@@H]1C(=O)N[C@@H](CC(C)C)C(=O)NCCC(C)C` [Aloxistatin, aloxistatin, reference compound] the EC50 [2] was 0.923 µM, the CC50 (in vitro) was > 50 µM and the EC50 (VSV-G pseudovirus; Pseudovirus) was > 50 µM. The “SI (cytotoxicity)” value ([1]; human) was “>54.17”.
